Results as given in patent US20230391841A1, “MACROCYCLIC PEPTIDES” (Herantis Pharma OYJ, priority 2019, published 2023).
Bridge positions count the residues as written; N and C are the ends. Peptide text beside a SMILES is read from it.

Assays:
[1] = system: dopaminergic TH-positive neurons injured with MPP+; experiment: Neuroprotective effect on dopaminergic TH-positive neurons injured with MPP+ (primary mesencephalic culture); format: cell-based, rat; conditions: MPP+ injured TH-positive neurons
Protocol: Neuroprotective effects of compounds 1-26 (SEQ ID NO: 1-26) were tested in an in vitro model in which primary cultures of rat embryonic mesencephalic neurons were stressed with MPP+ , the active metabolite of neurotoxin 1-methyl-4-phenyl-1,2,3,6-tetrahydropyridine (MPTP). MPP+ kills dopaminergic (TH-positive) neurons via a variety of toxic mechanisms, including mitochondrial dysfunction, generation of peroxynitrite, oxidative stress, ER stress and induction of apoptosis.
Culture of mesencephalic neurons. Rat dopaminergic neurons were cultured as described by Visanji et al., 2008. Briefly, the midbrains obtained from 15-day-old rat embryos (Janvier, France) were dissected, and the ventral portion of the mesencephalic flexure, a region of the developing brain rich in dopaminergic neurons, was used for the cell preparations. The midbrain cells were dissociated by trypsinization for 20 min at 37° C. (solution at a final concentration of 0.05% trypsin and 0.02% EDTA). The reaction was stopped by adding Dulbecco's modified Eagle's medium (DMEM) containing DNAase I grade II (0.5 mg/mL) and 10% of fetal calf serum (FCS). Cells were then mechanically dissociated by 3 passages through a 10 ml pipette. Cells were then centrifuged at 180×g for 10 min at +4° C. on a layer of BSA (3.5%) in L15 medium. The cell pellets were re-suspended in a defined culture serum-free medium consisting of Neurobasal (Invitrogen) supplemented with B27 (2%), L-glutamine (2 mM) and 2% of PS solution and 1Ong/ml of Brain-derived neurotrophic factor (BDNF) and 1 ng/mL of Glial-Derived Neurotrophic Factor (GDNF). Viable cells were counted in a Neubauer cytometer using the trypan blue exclusion test. The cells were seeded at a density of 40 000 cells/well in 96 well-plates (pre-coated with poly-L-lysine) and maintained in a humidified incubator at 37° C. in 5% CO2/95% air atmosphere. Half of the medium was changed every 2 days with fresh medium. On 96-wells plates, only 60 wells are used. To avoid any edge effect, the first and last lines and columns were not used for culture and were filled with sterile water.
CDNF as well as linear and macrocyclic compounds […] (SEQ ID NOs: 1-26) were tested. On day 6 of culture, the compounds were dissolved in culture medium and then pre-is incubated with mesencephalic neurons for 4 hours before the MPP+ application. Four hours after the preincubation of the compounds, MPP+ was added to a final concentration of 4 pM, diluted in control medium still in presence of compounds for 48 h.
48 h after intoxication, the cells were fixed by a solution of 4% paraformaldehyde in PBS, pH 7.3 for 20 min at room temperature. The cells were washed twice in PBS, and then permeabilized and non-specific sites were blocked with a solution of PBS containing 0.1% of saponin and 1% FCS for 15 min at room temperature. Next, the cells were incubated with (a) a monoclonal antibody anti-Tyrosine Hydroxylase (TH) produced in mouse at dilution of 1:10000 and with (b) a polyclonal antibody anti-alpha-synuclein (α-syn) antibody produced in rabbit at dilution of 1:400 in PBS containing 1% FCS, 0.1% saponin, for 2 h at room temperature.
48 h after intoxication, the cell culture supernatant was removed, and the cells fixed by a solution of 4% paraformaldehyde in PBS, pH 7.3 for 20 min at room temperature. The cells were washed twice in PBS, and then permeabilized and non-specific sites were blocked with a solution of PBS containing 0.1% of saponin and 1% FCS for 15 min at room temperature. Then, the cells were incubated with a) a monoclonal Anti-Tyrosine Hydroxylase (TH) antibody produced in mouse at dilution of 1:10000 in PBS containing 1% FCS, 0.1% saponin, for 2 hours at room temperature, and b) a polyclonal anti-postsynaptic density protein-95 (PSD-95) antibody produced in rabbit at dilution of 1:200 in PBS containing 1% FCS, 0.1% saponin, for 2 h at room temperature. This antibody stains specifically synapses. […]

[2] = system: rat hepatocytes; experiment: In vitro metabolic stability in rat hepatocytes; format: in vitro ADME; conditions: 1 μM, 37° C., up to 60 min
Protocol: The linear or macrocyclic compounds 1-14 and 23-26 (SEQ ID NOs: […]) were incubated in concentration 1 μM with pooled cryopreserved rat hepatocytes (Sprague-Dawley, male; 400 pl, 1.0 million viable cells/ml for compounds 1-8, 11-12 and 23-26 or 100 μl, 0.1 million viable cells/ml for compounds 9-10 and 13-14) for different time points (0, 10, 20, 40 or 60 min) at 37° C. The cell density and viability were determined by trypan blue exclusion method. The incubation was terminated by acetonitrile. The collected samples were centrifuged for 20 min at 2272×g and analyzed. The samples were analyzed is by UHPLC/PDA with high resolution mass spectrometry (QE-Orbitrap-MS on DDI mode) (compounds 1-8, 11-12 and 23-26) or HHPLC-ToF mass spectrometry (for compounds 9-and 13-14) to monitor disappearance of the compound. Verapramil 1 μM was used as a disappearance rate control. The analytical method was optimized by using the parent compounds for optimum chromatographic properties (peak shape and retention) and mass spectrometric ionization. The Ion chromatograms were extracted from the total ion chromatograms using calculated monoisotopic accurate masses with 5 mDa window. Disappearance was based on LC/MS peak areas, marking 0 min as 100%. The first-order rate constants k (min-1) of the metabolism were obtained from the slope of time versus logarithm (% of remaining compound) plot using Excel software. The in vitro half-life (t1/2) of study compound is defined as: t1/2In2/k. Calculated half-life is based on compound disappearance in rat liver hepatocytes.

[3] = In vivo pharmacokinetics after intravenous administration to rats; design: species or system male Sprague-Dawley rats; conditions: rat, 5 mg/kg intravenous bolus, male Sprague-Dawley rats
Protocol: The clearance and elimination of peptides can be mediated by multiple processes in vivo, including metabolism and renal elimination.
Test compounds were intravenously (i.v.) administered to male Spraque-Dawley rats (about is six weeks old, n=3 per compound) at 5 mg/kg. Blood samples were collected from jugular vein through implanted in-dwelling catheters (250 pl blood) into labelled polypropylene tubes containing anticoagulant (heparin) at 2 min, 5 min,15 min, 30 min, 1 h, 2 h and 4 h after compound administration and held on wet ice for a maximum of 30 minutes. The blood samples were centrifuged for plasma separation (4 °C, 21100 G, 5 min). Tolbutamide 500ng/ml with 10% TFA in acetonitrile or in MeCN was used as an internal standard solution.
The standard samples were prepared into rat plasma by spiking the matrix into concentrations 2-10 000 ng/ml of the analyte, respectively, and otherwise treated as the samples. To 50 pl aliquots of sample plasma was added 200 pl of internal standard. Samples were mixed (150 rpm, 15 min) and centrifugated (3000 rpm, 15min). The analytical method was optimized for reaction monitoring chromatographic (peak shape & retention) shifts and mass spectrometric properties (ionization efficiency, MS/MS detection). Supernatants were analyzed by UHPLC-TOF mass spectrometry using electrospray ionization.

SMILES: CC[C@H](C)[C@@H]1NC(=O)[C@H](CO)NC(=O)[C@H](CCCCN)NC(=O)[C@H](CCC(=O)O)NC(=O)[C@H](C)NC(=O)[C@@H]2CSSC[C@H](NC(=O)[C@H]([C@@H](C)O)NC(=O)[C@H](CCC(=O)O)NC(=O)CNC(=O)[C@H](Cc3c[nH]c4ccccc34)NC(=O)[C@H](CC(=O)O)NC(=O)[C@H](CC(=O)O)NC(=O)[C@H](CC(C)C)NC1=O)C(=O)N[C@@H](CCCCN)C(=O)NCC(=O)N2 [Compound 10, KSILDDWGETCKGCAE] (cyclo(AEKSILDDWGETCKGC); disulfide 13-16)
- potency of macrocyclic peptide versus its linear counterpart [1]: comparable
- stability in rat hepatocytes as compared to linear counterpart [2]: significantly improved stability
- AUC(0-inf) ([3]; in vivo): 2140 ng·h/mL
- MRT ([3]; in vivo): 1.2 min
- Vd ([3]; in vivo): 0.05 L/kg
- half-life ([3]; in vivo): 3.6 min
- clearance ([3]; plasma, read-out: CI): 39.9 mL/min/kg
